Test results from PubChem BioAssay (NCI).
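Method: 48-hour compound exposure of cells in 96-well plates, five concentrations, linear interpolation of endpoints. TGI marks complete inhibition of growth.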

Experiments:
Assay in all cases: NCI anticancer screen, dose series, 48 h
TK-10 renal = tested on: TK-10 renal
A498 renal = tested on: A498 renal
KM20L2 colon = tested on: KM20L2 colon
DMS 114 small cell lung = tested on: DMS 114 small cell lung
XF 498 CNS = tested on: XF 498 CNS
LXFL 529 NSCLC = tested on: LXFL 529 NSCLC
SNB-78 CNS = tested on: SNB-78 CNS
DLD-1 colon = tested on: DLD-1 colon
HOP-18 NSCLC = tested on: HOP-18 NSCLC
DMS 273 small cell lung = tested on: DMS 273 small cell lung
M19-MEL melanoma = tested on: M19-MEL melanoma
RXF-631 renal = tested on: RXF-631 renal

| Compound | TGI (TK-10 renal) [µM] | TGI (A498 renal) [µM] | also measured |
| --- | --- | --- | --- |
| Nc1c2ccccc2nc2ccc(C(=O)Nc3ccc(S(N)(=O)=O)cc3)cc12 | > 100 | – | – |
| Cc1[nH]c(=O)nc2c1C(=O)N(C(C)C)C(NC(C)C)S2 (configuration not stated) | > 100 | > 100 | – |
| C[N+](C)([O-])Cc1cccc(NC(=O)c2ccc(C(=O)Nc3cccc(C[N+](C)(C)[O-])c3)cc2)c1 | > 100 | – | – |
| COc1ccc(C2Oc3cc(OC)c(O)cc3[C@@H]2C)cc1 (some centres not stated) | > 100 | > 100 | TGI (KM20L2 colon): > 100 µM; TGI (DMS 114 small cell lung): 40.3 µM; TGI (XF 498 CNS): 35.6 µM; TGI (LXFL 529 NSCLC): 32.1 µM; TGI (SNB-78 CNS): > 100 µM; TGI (DLD-1 colon): 44.4 µM; TGI (HOP-18 NSCLC): > 100 µM; TGI (DMS 273 small cell lung): > 100 µM |
| CCOC(=O)C1(C/C=C\CBr)CCCCCCC1=O (configuration not stated) | > 100 | > 100 | – |
| CCOC(=O)C1C(=O)C=C(c2cc(C)ccc2O)CC1c1cccc(Br)c1 (configuration not stated) | 42.1 | – | – |
| N#Cc1c(C#N)c(-c2ccco2)n(/N=C/c2ccco2)c1N | > 100 | > 100 | – |
| O=C1c2c(ccc3c2CCCC3)CC12Cc1ccccc1C2 | > 100 | 77.5 | – |
| CC1(C)CC(=O)C2=C(C1)OC1=C(CC(C)(C)CC1=O)C2c1ccccc1Cl (configuration not stated) | – | > 100 | – |
| Cc1ccc(-n2cc(-c3ccc(Cl)cc3)c3c(NNC(=S)NCc4ccccc4)ncnc32)cc1 | 68.2 | 82.1 | – |
| CC(C)(C)OC(=O)N1CC(COS(C)(=O)=O)c2ccc(O)cc21 (configuration not stated) | 8.76 | 4.38 | – |
| COC[C@H](Cc1ccccc1)N=Cc1ccccc1 | > 100 | – | – |
| O=C1CSC(c2ccc(Cl)cc2)N1c1ccc(-n2c(-c3ccccc3)nc3ccccc3c2=O)cc1 (configuration not stated) | > 100 | > 100 | – |
| Nc1nc(NC(=O)C2=NS(=O)(=O)c3cc(S(N)(=O)=O)c(Cl)cc3N2)n[nH]1 | > 100 | > 100 | TGI (KM20L2 colon): > 100 µM; TGI (DMS 114 small cell lung): > 100 µM; TGI (XF 498 CNS): > 100 µM; TGI (LXFL 529 NSCLC): > 100 µM; TGI (SNB-78 CNS): > 100 µM; TGI (M19-MEL melanoma): > 100 µM; TGI (DLD-1 colon): > 100 µM; TGI (HOP-18 NSCLC): > 100 µM |
| O=C1NC(N2CCCC(CO)C2)=N/C1=C\c1ccc(O)cc1 (configuration not stated) | > 100 | – | – |
| OB1OCc2ccccc21 | > 100 | > 100 | – |
| O=c1n(CCO)nc2n1CCCN2 | > 100 | – | – |
| Clc1ccc(CCn2ccc3ccccc32)c(Cl)c1 | > 100 | > 100 | – |
| COc1cc2c(cc1C)NC(=O)/C2=C/c1c(Cl)n(C)c2ccccc12 | 30.7 | 21.5 | – |
| C[N+]12C=CC=C1C(N1CCCC1)c1sc(-c3ccc(Cl)cc3)cc12 (configuration not stated) | 40.7 | 41.4 | – |
| O=C(O)CCCCCNC(=O)CCC(CN(CC(=O)OCc1ccccc1)CC(=O)OCc1ccccc1)N(CC(=O)OCc1ccccc1)CC(=O)OCc1ccccc1 (configuration not stated) | 29.9 | 32.2 | – |

| Compound | TGI (TK-10 renal) [µM] | TGI (A498 renal) [µM] | also measured |
| --- | --- | --- | --- |
| O=S(=O)(CC#CCS(=O)(=O)c1ccccc1)c1ccccc1 | 7.61 | 36.3 | – |
| N#Cc1ccc(/C=C2\Cc3ccccc3C2=O)cc1 | > 100 | – | – |
| CC(C)(C)OC(=O)N(CCCN)CCCCN(CCCN)C(=O)OC(C)(C)C | > 100 | > 100 | – |
| Cc1cc(C)n(CN(Cn2nc(C)cc2C)c2ccc(N(Cn3nc(C)cc3C)Cn3nc(C)cc3C)cc2)n1 | 69.8 | 63.2 | – |
| COc1cc(/C=C/C(=O)C(C)(C)C)cc(OC)c1OC | > 100 | – | TGI (KM20L2 colon): > 100 µM; TGI (DMS 114 small cell lung): 71.5 µM; TGI (XF 498 CNS): > 100 µM; TGI (LXFL 529 NSCLC): 93.5 µM; TGI (M19-MEL melanoma): > 100 µM; TGI (DLD-1 colon): > 100 µM; TGI (HOP-18 NSCLC): > 100 µM; TGI (DMS 273 small cell lung): > 100 µM |
| NC(N)=NS(=O)(=O)c1ccc(NC(=O)c2c3ccccc3nc3ccccc23)cc1 | > 100 | > 100 | – |
| COC(=O)C(I(OS(=O)(=O)c1ccc(C)cc1)c1ccccc1)=P(c1ccccc1)(c1ccccc1)c1ccccc1 | 57 | 44.7 | – |
| COc1cc(NS(C)(=O)=O)ccc1N1Cc2cnc3ccc4[nH]ccc1c4c23 | > 100 | > 100 | – |
| COc1cccc2c(NNc3ccc(Cl)cc3)c3ccc([N+](=O)[O-])cc3nc12 | 25.8 | 33.2 | – |
| Cc1c2cccc-2c(N(C)C)cc2c1[nH]c1ccccc12 | 13.2 | 37.8 | – |
| COC(=O)[C@H]1ON2O[C@H](OC3CCCC[C@@H]3c3ccccc3)C[C@@H]3CC[C@H]1[C@@]32C (some centres not stated) | > 100 | > 100 | – |
| COc1cc(C=Nc2ccc(Oc3ccc(Cl)cc3)c(Cl)c2)cc(OC)c1OC | > 100 | – | – |
| CCC(c1ccc(N(C)C)cc1)C1NC(=S)NC1=O (configuration not stated) | > 100 | > 100 | – |
| CC(C)(C)OC(=O)NCCNC(=O)OCc1ccccc1 | > 100 | – | – |
| O=C1c2ccccc2C(=O)c2c1c1cc(O)ccc1n2Cc1ccc(Cl)cc1Cl | 27.4 | 38.1 | – |
| COC(=O)c1cc(CNCCc2c[nH]c3ccccc23)on1 | > 100 | > 100 | TGI (RXF-631 renal): > 100 µM; TGI (KM20L2 colon): > 100 µM; TGI (DMS 114 small cell lung): > 100 µM; TGI (XF 498 CNS): 67.4 µM; TGI (LXFL 529 NSCLC): > 100 µM; TGI (M19-MEL melanoma): > 100 µM; TGI (DLD-1 colon): > 100 µM; TGI (DMS 273 small cell lung): > 100 µM |
| O=C(C(=O)n1ccc2ccccc21)c1c[nH]c2ccccc12 | > 10 | – | – |
| Cc1ccc(CCNC(=S)SCC(NC(=O)CCC(N)C(=O)O)C(=O)NCC(=O)O)cc1 (configuration not stated) | 9.95 | 6.25 | TGI (RXF-631 renal): 5.62 µM; TGI (KM20L2 colon): 5.1 µM; TGI (DMS 114 small cell lung): 2.72 µM; TGI (XF 498 CNS): 3.15 µM; TGI (LXFL 529 NSCLC): 2.12 µM; TGI (M19-MEL melanoma): 4.07 µM; TGI (DLD-1 colon): 2.63 µM; TGI (HOP-18 NSCLC): 7.76 µM; TGI (DMS 273 small cell lung): 1.68 µM |
| O=S(=O)(N1CCCCN(S(=O)(=O)C(F)(F)F)CCCN(S(=O)(=O)C(F)(F)F)CCCN(S(=O)(=O)C(F)(F)F)CCCCN(S(=O)(=O)C(F)(F)F)CCCN(S(=O)(=O)C(F)(F)F)CCC1)C(F)(F)F | > 100 | > 100 | – |
| CCN1CCc2sc3[nH]c(=S)n(C)c(=O)c3c2C1 | > 100 | > 100 | – |
| CCN(CC)CC(C(=O)Nc1c(C)cccc1C)/C(C)=N/NC(N)=S (configuration not stated) | > 100 | > 100 | TGI (RXF-631 renal): > 100 µM; TGI (KM20L2 colon): > 100 µM; TGI (DMS 114 small cell lung): > 100 µM; TGI (XF 498 CNS): > 100 µM; TGI (LXFL 529 NSCLC): > 100 µM; TGI (SNB-78 CNS): > 100 µM; TGI (M19-MEL melanoma): > 100 µM; TGI (DLD-1 colon): > 100 µM; TGI (DMS 273 small cell lung): > 100 µM |
